Laboratory results from article PMC4126480, “Evaluation of drug interaction potential of Labisia pumila (Kacip Fatimah) and its constituents” (Frontiers in Pharmacology, 2014).
“And” between values parts separate entries of the source, which are not always exact repeats. Equal entries are not always repeated.

How the values were obtained:
CYP2C9 [1] = target: T1, CYP2C9 (Homo sapiens, UniProt P11712); test: Prediction of in vivo HDI from in vitro results, CYP2C9; parameters: key to Likelihood of causing HDI: If the IC50 values were lower than the GIT or plasma concentration, then the test compound or extract is likely to cause HDI in vivo; conditions: for Likelihood of causing HDI: CYP2C9, IC50 compared with estimated GIT and plasma concentrations; for Plasma concentration: Table 3, CYP2C9 section
T1 construct: purchased BD Gentest (Woburn, MA, USA); host or cells: baculovirus expression system
Protocol: (§1) All assumptions to predict the HDI potential of KF methanolic extract and its constituents were according to previously published report ([Awortwe et al., 2014]). The % yield was calculated from the amounts extracted from the KF roots ([Ali and Khan, 2011]). The human GIT volume is 250 mL and plasma volume is about 3 L. The commonly used maximum dose of KF extract capsules is 560 mg per day ([Abdul Kadir et al., 2012]) and accordingly we estimated the concentration per dose, GIT, and plasma concentrations of extract and its constituents. We then compared the in vitro IC50 values obtained from recombinant CYPs with estimated GIT and plasma concentrations. If the IC50 values were lower than the GIT or plasma concentration, then the test compound or extract is likely to cause HDI in vivo.

CYP2C19 [2] = target: T2, CYP2C19 (Homo sapiens, UniProt P33261); test: Prediction of in vivo HDI from in vitro results, CYP2C19; parameters: key to Likelihood of causing HDI: If the IC50 values were lower than the GIT or plasma concentration, then the test compound or extract is likely to cause HDI in vivo; conditions: for Likelihood of causing HDI: CYP2C19, IC50 compared with estimated GIT and plasma concentrations; for Plasma concentration: Table 3, CYP2C19 section
T2 construct: purchased BD Gentest (Woburn, MA, USA); host or cells: baculovirus expression system
Protocol: as §1

CYP2C19 [3] = target: T2, CYP2C19; test: Reversible inhibition (co-incubation assay) of recombinant CYP2C19; assay type: in vitro ADME
Protocol: (§2) The assay for reversible inhibition was conducted in a total volume of 200 μL in 96-well microplates. The assay conditions, enzyme and substrate concentrations were similar as reported earlier ([Crespi et al., 1997]; [Manda et al., 2013]). Test samples or positive controls were serially diluted in a solution (100 μL) of cofactors mix, control protein (0.05 mg of protein/mL), and G-6-PDH to achieve six concentrations (100-0.4 μM or μg/mL). Initial readings were taken to record any inherent fluorescence and the plates were incubated at 37°C for 10 min. Reaction was initiated by the addition of enzyme substrate mixture (100 μL) followed by incubation for 15, 30, or 45 min. The reaction was terminated by the addition of 75 μL of ice cold acetonitrile/0.5 M Tris base (80:20). Fluorescence was measured on Spectramax M5 plate reader (Molecular Devices, Sunnyvale, CA, USA) at specified excitation and emission wavelengths for each substrate. IC50 values (co-incubation assay) were obtained from concentration-response curves generated by plotting concentration versus % inhibition.

CYP2D6 = target: T3, CYP2D6 (Homo sapiens, UniProt P10635); test: Prediction of in vivo HDI from in vitro results, CYP2D6; conditions: for Likelihood of causing HDI: CYP2D6, IC50 compared with estimated GIT and plasma concentrations; for Plasma concentration: Table 3, CYP2D6 section
T3 construct: purchased BD Gentest (Woburn, MA, USA); host or cells: baculovirus expression system
Protocol: as §1

[4] = Estimation of concentration per dose, GIT and plasma concentrations (560 mg KF extract dose); parameters: species or system human; conditions: for Estimated concentration per dose: 560 mg KF extract, single dose, from % yield; for Estimated GIT concentration / Estimated Plasma concentration: 560 mg dose; for Estimated GIT concentration: human GIT volume 250 mL; for Estimated Plasma concentration: Table 2, plasma volume 3 L, 100% bioavailable assumed
Protocol: as §1

CYP2C9 [5] = target: T1, CYP2C9; test: Reversible inhibition (co-incubation assay) of recombinant CYP2C9; assay type: in vitro ADME
Protocol: as §2

CYP3A4 [6] = target: T4, CYP3A4 (Homo sapiens, UniProt P08684); test: Time dependent inhibition (pre-incubation assay) of recombinant CYP3A4; assay type: in vitro ADME
T4 construct: purchased BD Gentest (Woburn, MA, USA); host or cells: baculovirus expression system
Protocol: The reaction mixture (180–190 μL), consisting of test sample, recombinant enzyme, control protein (0.05 mg of protein/mL), cofactor mix, G-6-PDH, and 50 mM potassium phosphate buffer (pH 7.4) was pre-incubated for 30 min followed by addition of respective fluorescent substrates (10–20 μL) and further incubation for 15 (CYP1A2), 30 (CYP3A4), or 45 (CYP 2C9 and 2C19) min. The reaction was terminated by addition of 75 μL of ice cold acetonitrile/0.5 M Tris base (80:20) and fluorescence was measured as above. IC50 values (pre-incubation assay) were obtained as above. The shift in the concentration-response curve was calculated as the ratio of IC50 (co-incubation)/IC50 (pre-incubation).

CYP3A4 [7] = target: T4, CYP3A4; test: Prediction of in vivo HDI from in vitro results, CYP3A4; parameters: key to Likelihood of causing HDI: If the IC50 values were lower than the GIT or plasma concentration, then the test compound or extract is likely to cause HDI in vivo; conditions: for Likelihood of causing HDI: CYP3A4, IC50 compared with estimated GIT and plasma concentrations; for Plasma concentration: Table 3, CYP3A4 section
Protocol: as §1

CYP1A2 [8] = target: T5, CYP1A2 (Homo sapiens, UniProt P05177); test: Prediction of in vivo HDI from in vitro results, CYP1A2; conditions: for Likelihood of causing HDI: CYP1A2, IC50 compared with estimated GIT and plasma concentrations; for Plasma concentration: Table 3, CYP1A2 section
T5 construct: purchased BD Gentest (Woburn, MA, USA); host or cells: baculovirus expression system
T5 sequence (P05177 1-516): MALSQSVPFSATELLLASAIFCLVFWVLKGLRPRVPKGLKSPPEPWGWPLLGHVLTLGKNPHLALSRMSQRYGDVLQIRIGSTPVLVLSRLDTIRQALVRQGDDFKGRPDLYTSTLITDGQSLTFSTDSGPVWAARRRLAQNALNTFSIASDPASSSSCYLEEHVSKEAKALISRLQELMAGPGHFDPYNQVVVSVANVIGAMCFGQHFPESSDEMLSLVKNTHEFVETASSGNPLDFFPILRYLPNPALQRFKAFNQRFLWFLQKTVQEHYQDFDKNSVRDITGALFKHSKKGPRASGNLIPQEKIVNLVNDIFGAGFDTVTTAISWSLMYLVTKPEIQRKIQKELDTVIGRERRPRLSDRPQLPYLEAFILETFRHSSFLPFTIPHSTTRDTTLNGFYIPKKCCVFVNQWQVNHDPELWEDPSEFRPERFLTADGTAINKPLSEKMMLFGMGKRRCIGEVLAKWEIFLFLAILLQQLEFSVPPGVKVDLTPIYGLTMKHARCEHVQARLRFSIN
Protocol: as §1

CYP1A2 [9] = target: T5, CYP1A2; test: Reversible inhibition of recombinant CYP1A2; assay type: in vitro ADME
Protocol: as §2

[10] = recombinant CYP2C19, co-incubation

T3 sequence (P10635 whole entry): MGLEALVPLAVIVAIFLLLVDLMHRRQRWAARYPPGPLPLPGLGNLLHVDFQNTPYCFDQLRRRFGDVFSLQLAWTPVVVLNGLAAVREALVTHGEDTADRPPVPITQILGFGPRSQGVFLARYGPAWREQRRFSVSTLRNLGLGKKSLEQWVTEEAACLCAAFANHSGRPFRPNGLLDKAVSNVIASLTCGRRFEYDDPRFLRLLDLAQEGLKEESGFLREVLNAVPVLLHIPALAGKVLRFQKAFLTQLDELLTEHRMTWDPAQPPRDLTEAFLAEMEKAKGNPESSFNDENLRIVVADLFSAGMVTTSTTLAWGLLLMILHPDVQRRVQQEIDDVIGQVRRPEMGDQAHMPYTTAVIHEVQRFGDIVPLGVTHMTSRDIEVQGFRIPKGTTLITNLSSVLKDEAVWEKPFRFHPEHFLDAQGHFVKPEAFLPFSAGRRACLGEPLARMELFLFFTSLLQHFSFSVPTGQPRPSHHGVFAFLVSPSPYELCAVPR
T2 sequence (P33261 whole entry): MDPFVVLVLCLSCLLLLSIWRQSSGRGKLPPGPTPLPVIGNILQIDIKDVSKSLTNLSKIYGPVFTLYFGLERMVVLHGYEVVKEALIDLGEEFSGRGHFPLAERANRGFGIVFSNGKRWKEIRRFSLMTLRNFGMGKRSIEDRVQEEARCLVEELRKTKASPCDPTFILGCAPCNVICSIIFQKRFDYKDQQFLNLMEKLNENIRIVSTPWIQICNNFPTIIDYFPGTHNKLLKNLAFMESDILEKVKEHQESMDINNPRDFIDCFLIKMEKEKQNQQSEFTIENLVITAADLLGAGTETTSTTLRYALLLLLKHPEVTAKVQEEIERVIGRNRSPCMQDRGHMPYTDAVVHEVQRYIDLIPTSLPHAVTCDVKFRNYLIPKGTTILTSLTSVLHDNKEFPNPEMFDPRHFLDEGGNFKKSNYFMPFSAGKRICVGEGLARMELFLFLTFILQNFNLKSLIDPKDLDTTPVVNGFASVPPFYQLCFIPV
T4 sequence (P08684 whole entry): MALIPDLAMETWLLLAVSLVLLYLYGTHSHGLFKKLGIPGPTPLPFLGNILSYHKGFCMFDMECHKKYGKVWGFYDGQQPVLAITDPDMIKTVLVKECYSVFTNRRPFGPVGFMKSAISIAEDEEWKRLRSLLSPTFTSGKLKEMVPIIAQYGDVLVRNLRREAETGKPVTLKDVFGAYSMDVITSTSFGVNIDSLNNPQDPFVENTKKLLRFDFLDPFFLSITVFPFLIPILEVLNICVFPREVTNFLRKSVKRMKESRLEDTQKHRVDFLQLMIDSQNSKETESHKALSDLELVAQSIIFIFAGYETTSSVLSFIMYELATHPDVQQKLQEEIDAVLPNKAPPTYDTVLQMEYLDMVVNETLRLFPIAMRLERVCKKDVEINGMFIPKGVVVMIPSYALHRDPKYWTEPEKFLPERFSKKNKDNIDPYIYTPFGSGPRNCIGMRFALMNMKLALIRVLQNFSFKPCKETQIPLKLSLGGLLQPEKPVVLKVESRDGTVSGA
T1 sequence (P11712 whole entry): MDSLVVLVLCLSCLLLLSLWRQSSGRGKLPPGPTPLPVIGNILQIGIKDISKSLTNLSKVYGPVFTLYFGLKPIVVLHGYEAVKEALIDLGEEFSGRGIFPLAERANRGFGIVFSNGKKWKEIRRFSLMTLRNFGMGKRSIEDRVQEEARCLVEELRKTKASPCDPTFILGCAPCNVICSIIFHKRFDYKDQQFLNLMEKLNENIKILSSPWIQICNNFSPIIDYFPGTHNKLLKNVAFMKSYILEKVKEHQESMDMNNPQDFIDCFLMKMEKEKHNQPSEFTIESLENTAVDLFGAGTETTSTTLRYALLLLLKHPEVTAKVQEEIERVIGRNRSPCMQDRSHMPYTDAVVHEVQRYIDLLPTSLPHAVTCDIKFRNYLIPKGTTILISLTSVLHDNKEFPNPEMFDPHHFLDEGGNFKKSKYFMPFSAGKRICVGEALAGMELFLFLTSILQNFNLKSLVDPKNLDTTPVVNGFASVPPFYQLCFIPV

| SMILES | Likelihood of causing HDI (CYP2C9 [1]) | Plasma concentration (CYP2C9 [1]) | Likelihood of causing HDI (CYP2C19 [2]) | Plasma concentration (CYP2C19 [2]) | IC50 (CYP2C19 [3]; [10]) | Likelihood of causing HDI (CYP2D6) | Plasma concentration (CYP2D6) | Estimated concentration per dose [4] | Estimated GIT concentration [4] | Estimated Plasma concentration [4] | IC50 (CYP2C9 [5]) | IC50 (CYP3A4 [6]) | Likelihood of causing HDI (CYP3A4 [7]) | Plasma concentration (CYP3A4 [7]) | Likelihood of causing HDI (CYP1A2 [8]) | Plasma concentration (CYP1A2 [8]) | IC50 (CYP1A2 [9]) | IC50 (CYP2C19 [3]; human, recombinant CYP2C19, recombinant CYP2C19, co-incubation) |
| --- | --- | --- | --- | --- | --- | --- | --- | --- | --- | --- | --- | --- | --- | --- | --- | --- | --- | --- |
| CCCC/C=C\CCCCCCCCCc1cc(O)cc(O)c1 [5-[10(Z)-pentadecenyl]resorcinol] | likely | 13220 ng/mL | likely | 13220 ng/mL | 3.77 µM | Remote | 1460 ng/mL | 6.72 mg/mL | 27.1 µg/mL | 2.2 µg/mL | 11.9 µM | 0.3 ± 0.06 µM | likely | 13220 ng/mL | Remote | 774 ng/mL | 91.1 µM | – |
| CCCC/C=C\CCCCCCCCCc1cc(O)cc(OC)c1 [Belamcandol B] | remote | – | likely | – | 2.2 ± 0.6 µM | unlikely | 650 ng/mL | 3.41 mg/mL | 13.64 µg/mL | 1.13 µg/mL | 69.2 µM | 10 ± 1.3 µM | Remote | 1520 ng/mL | unlikely | 310 ng/mL | 220 µM | 2.2 µg/mL |
| CCCC/C=C\CCCCCCCCCC1=C(c2c(O)cc(O)cc2CCCCCCCCC/C=C\CCCC)C(=O)C=C(OC)C1=O [Demethylbelamcandaquinone B] | likely | 790 ng/mL | likely | 790 ng/mL | 8 µM and 7.99 µM | unlikely | 1640 ng/mL | 6.77 mg/mL | 27.1 µg/mL | 2.25 µg/mL | 16 µM and 15.1 µM | 26 ± 1.5 µM | unlikely | 790 ng/mL | unlikely | 722 ng/mL | 75.4 µM | – |
| CCCC/C=C\CCCCCCCCCc1cc(O)cc2oc3cc(OC)c(O)c(CCCCCCCCC/C=C\CCCC)c3c12 [Fatimahol] | unlikely | 16 ng/mL | unlikely | 16 ng/mL | 17 µM | unlikely | 16 ng/mL | 0.05 mg/mL | 0.20 µg/mL | 0.016 µg/mL | 17 µM | 4.4 ± 1.3 µM | unlikely | 16 ng/mL | unlikely | 16 ng/mL | 47.9 µM | – |
